Experimental data reported in patent US8946273B2, “S-Triazolyl alpha-mercapto acetanilides as inhibitors of HIV reverse transcriptase” (priority 2011, dated 2015).
Where two headings read alike, the source gives them in different places.

Legend:
[1] = target: T1, wild-type HIV reverse transcriptase (Human immunodeficiency virus type 1 group M subtype B, UniProt P04585); experiment: Activity on wild type reverse transcriptase (Table 1 IC50 WT); type: biochemical
T1 construct: wild-type and four mutant HIV reverse transcriptases
Method: Using similar methods as described above, 2-[5-bromo-4-(4-cyclopropylnaphthalen-1-yl)-4H-[1,2,4]triazol-3-ylsulfanyl]-N-(2-methyl-4-sulfamoylphenyeacetamide and 2-[5-bromo-4-(4-ethylnaphthalen-1-yl)-4H-[1,2,4]triazol-3-ylsulfanyl]-N-(2-chloro-4-sulfamoylphenyl)-acetamide were synthesized, as were the N-4-carbamyl analog, 2-[5-bromo-4-(4-ethyl-naphthalen-1-yl)-4H-[1,2,4]triazol-3-ylsulfanyl]-N-(2-chloro-4-carbamoylphenyl)-acetamide and the N-4-carboxyl analog. Each of the compounds was tested against a panel of mutant HIV reverse transcriptases, including 20 of the 22 of the mutants that are found in about 2% or more of the patient samples that are resistant to the most widely used non-nucleoside HIV-RT inhibitor efavirenz ((4S)-6-chloro-4-(cyclopropylethynyl)-1,4-dihydro-4-(trifluoromethyl)-2H-3,1-benzoxazin-2-one). […] In most cases both criteria were met. […] […].
Compounds of the invention were tested against the wild-type and four mutant HIV reverse transcriptases. The results are listed in Table 1 as EC50 (nM) and IC50 (nM). In the Table, A represents <50 nM, B is between 50 and 100 nM, and C is >100 nM. ND is not determined.

wild type HIV-1 = experiment: microbe, parasite or virus in culture; type: cell-based, human immunodeficiency virus type 1 (HIV-1)
[2] = target: mutant HIV reverse transcriptases (Human immunodeficiency virus type 1, UniProt P12497, Y775L, cells depend on it); type: cell-based
[3] = target: mutant HIV reverse transcriptases (Human immunodeficiency virus type 1, UniProt P12497, Y768C, cells depend on it); type: cell-based
[4] = Human immunodeficiency virus 1, Hela-JC53, read-out: EC50 WT
[5] = read-out: IC50 WT RT, wild-type (WT) RT
[6] = read-out: EC50 WT, wild-type (WT) HIV-1

Row | Structure (SMILES) | IC50 [1] [nM] | EC50 (wild type HIV-1; [4]) [nM] | EC50 [2] [nM] | EC50 [3] [nM] | IC50 [1, 5] [nM] | EC50 (wild type HIV-1; [6]) [nM]
1 | O=C(CSc1nnc(Br)n1-c1ccc(C2CC2)cc1Cl)Nc1ccc(S(=O)(=O)O)cc1Cl [compound 21] | < 50 | 50 to 100 | > 100 | > 100 |  | 
2 | NS(=O)(=O)c1ccc(NC(=O)CSc2nnc(Br)n2-c2ccc(C3CC3)cc2OC(F)(F)F)c(Cl)c1 [compound 90] |  |  | 50 to 100 | < 50 |  | 
3 | COc1ccc2c(C3CC3)ccc(-n3c(Br)nnc3SCC(=O)Nc3ccc(C(=O)O)cc3Cl)c2c1 [compound 34] |  | < 50 | < 50 | < 50 |  | 
4 | COc1ccc2c(C)ccc(-n3c(Br)nnc3SCC(=O)Nc3ccc(S(N)(=O)=O)cc3Br)c2c1 [compound 74] | < 50 | < 50 | < 50 | < 50 |  | 
5 | NS(=O)(=O)c1ccc(NC(=O)CSc2nnc(Br)n2-c2ccc(C3CC3)c3ccccc23)c(Cl)c1 [compound 77] |  | < 50 | > 100 | 50 to 100 |  | 
6 | CCOC(=O)CCNC(=O)c1ccc(NC(=O)CSc2nnc(Br)n2-c2ccc(C3CC3)c3ccccc23)c(Cl)c1 [compound 104] | < 50 | < 50 | < 50 | < 50 |  | 
7 | CCCCNC(=O)c1ccc(NC(=O)CSc2nnc(Br)n2-c2ccc(CC)c3ccccc23)c(Cl)c1 [compound 121] | 50 to 100 | < 50 | < 50 | < 50 |  | 
8 | Cc1cc(C)c2ccccc2c1-n1c(SCC(=O)Nc2ccc(S(N)(=O)=O)cc2Cl)nnc1C(F)(F)F [compound 84] |  |  | < 50 | < 50 | < 50 | < 50
9 | Cc1cc(C)c2ccccc2c1-n1c(CF)nnc1SCC(=O)Nc1ccc(S(N)(=O)=O)cc1Cl [compound 53] |  | < 50 | < 50 | < 50 |  | 
10 | O=C(CSc1nnc(Br)n1-c1cccc2c(OCC3CC3)cccc12)Nc1ccc(C(=O)O)cc1Cl [compound 32] | > 100 | > 100 | > 100 | > 100 |  | 
11 | Cc1cc(S(N)(=O)=O)ccc1NC(=O)CSc1nnc(Br)n1-c1ccc(C2CC2)c2ccccc12 [compound 40] | < 50 | < 50 | < 50 | < 50 |  | 
12 | NS(=O)(=O)c1ccc(NC(=O)CSc2nnc(C(F)F)n2-c2ccc3c4c(cccc24)CC3)c(Cl)c1 [compound 36] | < 50 | < 50 | < 50 | < 50 |  | 
13 | CC(Sc1nnc(Br)n1-c1ccc(C2CC2)c2ccccc12)C(=O)Nc1ccc(S(N)(=O)=O)cc1Cl (stereo not shown) [compound 76] |  |  | > 100 | 50 to 100 |  | 
14 | COc1ccc2c(C3CC3)ccc(-n3c(Br)nnc3SCC(=O)Nc3ccc(S(=O)(=O)O)cc3Cl)c2c1 [compound 19] |  |  | > 100 | 50 to 100 | < 50 | 50 to 100
15 | NS(=O)(=O)c1ccc(NC(=O)CSc2nnc(Br)n2-c2ccc3c4c(cccc24)CC3)c(Cl)c1 [compound 37] | < 50 | < 50 | < 50 | < 50 |  | 
16 | CCc1ccc(-n2c(SCC(=O)Nc3ccc(S(N)(=O)=O)cc3Cl)nnc2C(F)F)c2c1CCCC2 [compound 47] | < 50 | < 50 | < 50 | < 50 |  | 
17 | COc1ccc2c(C)ccc(-n3c(Br)nnc3SCC(=O)Nc3ccc(C(=O)O)cc3Cl)c2c1 [compound 18] |  |  | < 50 | < 50 |  | 
18 | CCc1ccc(-n2c(Br)nnc2SCC(=O)Nc2ccc(C(=O)NCCCCO)cc2Cl)c2ccccc12 [compound 137] | < 50 | < 50 | < 50 | < 50 |  | 
19 | CCc1ccc(-n2c(Br)nnc2SCC(=O)Nc2ccc(C(=O)O)cc2Br)c2ccccc12 [compound 22] | < 50 | < 50 | 50 to 100 | < 50 |  | 
20 | O=C(CSc1nnc(Br)n1-c1ccc(C2CC2)c2ccccc12)Nc1ccc(C(=O)O)cc1Cl [compound 10] | < 50 | < 50 | < 50 | < 50 |  | 
21 | NS(=O)(=O)c1ccc(NC(=O)CSc2nnc(Br)n2-c2ccc(C3CC3)c3ccccc23)c(Cl)c1 [compound 42] |  |  | < 50 | < 50 |  | < 50
22 | N#Cc1cccc2c(-n3c(SCC(=O)Nc4ccc(S(N)(=O)=O)cc4Cl)nnc3C(F)F)cccc12 [compound 96] |  |  | > 100 | < 50 |  | 
23 | CCc1ccc(-n2c(Br)nnc2SCC(=O)Nc2ccc(S(=O)(=O)O)cc2Br)c2ccccc12 [compound 20] | < 50 | > 100 | > 100 | > 100 |  | 

Row | Structure (SMILES) | IC50 [1] [nM] | EC50 (wild type HIV-1; [4]) [nM] | EC50 [2] [nM] | EC50 [3] [nM] | IC50 [1, 5] [nM] | EC50 (wild type HIV-1; [6]) [nM]
24 | NS(=O)(=O)c1ccc(NC(=O)CSc2nnc(Br)n2-c2ccc(C3CC3)cc2Cl)c(Cl)c1 [compound 75] | < 50 | < 50 | < 50 | < 50 |  | 
25 | COc1ccc2cccc(-n3c(Br)nnc3SCC(=O)Nc3ccc(C(=O)O)cc3Cl)c2c1 [compound 13] | < 50 | < 50 | < 50 | < 50 |  | 
26 | CCOC(=O)CNC(=O)c1ccc(NC(=O)CSc2nnc(Br)n2-c2ccc(C3CC3)c3ccccc23)c(Cl)c1 [compound 101] | < 50 | < 50 | < 50 | < 50 |  | 
27 | Cc1cc(S(N)(=O)=O)ccc1NC(=O)CSc1nnc(CF)n1-c1c(C)cc(C)c2ccccc12 [compound 52] | < 50 | < 50 | < 50 | < 50 |  | 
28 | CCc1ccc(-n2c(Br)nnc2SCC(=O)Nc2ccc(S(N)(=O)=O)cc2Cl)c2ccccc12 [compound 87] |  | < 50 | < 50 | < 50 |  | 
29 | CCc1ccc(-n2c(Br)nnc2SCC(=O)Nc2ccc(C(=O)O)cc2Cl)c2ccccc12 [compound 9] |  |  |  | < 50 |  | < 50
30 | NS(=O)(=O)c1ccc(NC(=O)CSc2nnc(Br)n2-c2ccc(C3CCC3)c3ccccc23)c(Cl)c1 [compound 95] |  | < 50 | < 50 | < 50 |  | 
31 | Cc1ccc2ccccc2c1-n1c(Br)nnc1SC(C)C(=O)Nc1ccc(S(N)(=O)=O)cc1Cl (stereo not shown) [compound 141] | < 50 | < 50 |  |  |  | 
32 | Cc1cc(C2CC2)cc(Cl)c1-n1c(Br)nnc1SCC(=O)Nc1ccc(C(=O)O)cc1Cl [compound 28] |  |  | < 50 | < 50 |  | 
33 | NS(=O)(=O)c1ccc(NC(=O)CSc2nnc(Br)n2-c2ccc(C3CC3)cc2)c(Cl)c1 [compound 78] |  |  | > 100 | < 50 |  | 
34 | Cc1cc(C2CC2)ccc1-n1c(Br)nnc1SCC(=O)Nc1ccc(S(N)(=O)=O)cc1Cl [compound 88] |  | < 50 | < 50 | < 50 |  | 
35 | CCCc1ccc(-n2c(Br)nnc2SCC(=O)Nc2ccc(S(N)(=O)=O)cc2Cl)c2ccccc12 [compound 85] |  | < 50 | < 50 | < 50 |  | 
36 | Cc1cc(S(N)(=O)=O)ccc1NC(=O)CSc1nnc(Br)n1-c1ccc(C)c2c1CCCC2 [compound 80] |  | < 50 | < 50 | < 50 |  | 
37 | Cc1cc(C(=O)O)ccc1NC(=O)CSc1nnc(Br)n1-c1ccc(C2CC2)c2ccccc12 [compound 35] | < 50 | < 50 |  |  |  | 
38 | Cc1cc(S(N)(=O)=O)ccc1NC(=O)CSc1nnc(Br)n1-c1ccc(C2CCC2)c2ccccc12 [compound 94] |  |  | < 50 | < 50 |  | 
39 | NS(=O)(=O)c1ccc(NC(=O)CSc2nnc(Br)n2-c2ccc(C3CC3)c3ccccc23)c(Cl)c1 [compound 39] |  |  | < 50 | < 50 |  | < 50
40 | Cc1ccc2c(C)ccc(-n3c(Br)nnc3SCC(=O)Nc3ccc(S(N)(=O)=O)cc3Br)c2c1 [compound 81] |  | < 50 | < 50 | < 50 |  | 
41 | NS(=O)(=O)c1ccc(NC(=O)CSc2nnc(Br)n2-c2c(Cl)cc(C3CCC3)c3ccccc23)c(Cl)c1 [compound 91] |  | < 50 | < 50 | < 50 |  | 
42 | Cc1cc(C)c2ccccc2c1-n1c(CF)nnc1SCC(=O)Nc1ccc(S(N)(=O)=O)cc1Cl [compound 82] |  |  |  | < 50 |  | < 50
43 | CCc1ccc(-n2c(Br)nnc2SCC(=O)Nc2ccc(S(N)(=O)=O)cc2Cl)c2c1CCCC2 [compound 79] |  | < 50 | < 50 | < 50 |  | 
44 | NS(=O)(=O)c1ccc(NC(=O)CSc2nnc(Cl)n2-c2ccc(C3CC3)c3ccccc23)c(Cl)c1 [compound 89] |  | < 50 | < 50 | < 50 |  | 
45 | Cc1cc(C2CC2)cc(Cl)c1-n1c(Br)nnc1SCC(=O)Nc1ccc(S(N)(=O)=O)cc1Cl [compound 93] |  |  | < 50 | < 50 |  | 
46 | CCCc1ccc(-n2c(Br)nnc2SCC(=O)Nc2ccc(S(N)(=O)=O)cc2C)c2ccccc12 [compound 86] |  | < 50 | < 50 | < 50 |  | 
